According to US20210308034A1, “PREBIOTIC COMPOSITIONS AND METHODS FOR MAINTAINING A HEALTHY SKIN MICROBIOTA” (KIMBERLY-CLARK WORLDWIDE, INC., priority 2018, published 2021):

Legend:
Type in all cases: cell-based
[1] = tested on: Pseudomonas aeruginosa (ATCC 9027); conditions: Pathogenic; carbon microarray plate, OD 600 nm, 36 hr, 33° C.; positive = more than 0.05 OD units above zero; blank cell = not utilized
Description: (§1) After creating desired ratios of various commensal skin bacteria in a healthy skin microbiome, 188 different carbohydrate sources were screened as the next step in determining potential prospects for skin microbiota balancing agents. The screening process was set up to determine which carbohydrate sources promoted commensal and/or pathogenic bacteria as well as to obtain individual and combinations of carbohydrate sources that could serve as microbiota balancing agents that can support or maintain the healthy proportions of commensal skin bacteria of Corynebacterium, Staphylococcus, and Micrococcus. The screening was conducted utilizing Biolog phenotype microarray plates (Hayward, Calif.). Table 1 provides a coded list of the commensal and pathogenic skin bacteria that the carbohydrates were screened against.
(§2) The Bacteria Codes B, D, E, I, and J are commensal bacteria and are shaded in Table 2 for references purposes. The bacteria codes were each placed in a carbon microarray plate and screened through the Carbohydrate Screening Test Method, as described in the Test Methods section herein. If a particular bacteria code utilized a specific carbohydrate source as described in the Carbohydrate Screening Test Method, then the corresponding cell in Table 2 was marked with a Y (short for “Yes”).
(§3) The study employed 10 representative skin bacteria; Staphylococcus epidermidis ATCC 14990, Staphylococcus epidermidis M23864:W2, Staphylococcus aureus ATCC 6538, Staphylococcus aureus ATCC 25904 (Newman), Pseudomonas aeruginosa ATCC 9027, Micrococcus luteus ATCC […], Micrococcus luteus SK58, Klebsiella pneumoniae ATCC BAA-2146, Corynebacterium amycolatum SK46, and Corynebacterium minutissimum ATCC 23348. Cultures were started from freezer bead stocks by placing a single bead into 20 mL of tryptic soy broth (TSB) for all organisms except C. amycolatum SK46 and C. minutissimum ATCC 23348, which were placed into brain heart infusion (BHI) broth. Cultures were grown for about 24 hr at 37° C. except M. luteus ATCC 49732 and M. luteus SK58, which were grown at 30° C. A passage of the culture was made using a sterile swab and streaked onto two M9*2 agar plates to prepare the incubated culture for the phenotype microarray pate according to Table 4. Plates were incubated for about 24 hr at 37° C. except for M. luteus ATCC 49732 and M. luteus SK58, which were incubated at 30° C. for 24 hr.
(§4) All cultures were harvested and washed before inoculation into the carbon microarray plate (BiOLOG, Hayward Calif.), with Biolog Plates PM1 and PM2 each having a source definition of Carbon. The bacteria on the M9*2 agar was suspended via agitation with an inoculating loop in 1 mL of M9*1 media for collection in a 1.7 mL micro centrifuge tube, as noted in Table 4. The bacteria was suspended again in M9*1 media, agitated, and collected into the same 1.7 mL microcentrifuge tube used in the previous step. The tube was centrifuged for 5 minutes at 4,000×G, supernatant decanted, the pellet was resuspended in 1 mL of M9*1 media, and vortex. This washing process was repeated for a total of 4 times.
(§5) A tenfold dilution in M9*1 media was performed using 1 mL of the washed bacterial culture. Of the tenfold dilution 200 μL was placed in an untreated 96-well plate (Falcon, Pasadena Tx.) for an initial optical density (OD) reading at a wavelength of 600 nm. The OD was used to correlate to colony forming units (CFU) per milliliter by using linear regression lines for each organism.

[2] = tested on: Klebsiella pneumoniae (ATCC BAA-2146); conditions: Pathogenic; carbon microarray plate, OD 600 nm, 36 hr, 33° C.; positive = more than 0.05 OD units above zero; blank cell = not utilized
Description: as §1
Table 2 provides the results of screening various carbohydrate sources against the commensal and pathogenic bacteria codes listed in Table 1. The Bacteria Codes B, D, E, I, and J are commensal bacteria and are shaded in Table 2 for references purposes. The bacteria codes were each placed in a carbon microarray plate and screened through the Carbohydrate Screening Test Method, as described in the Test Methods section herein. If a particular bacteria code utilized a specific carbohydrate source as described in the Carbohydrate Screening Test Method, then the corresponding cell in Table 2 was marked with a Y (short for “Yes”). […] Many of the carbohydrate sources were utilized by both commensal and pathogenic bacteria, and as such, would not provide an advantage for selective growth of the commensal bacteria. However, some of the carbohydrate sources were only used by commensal bacteria and were identified for further testing as described herein.
as §3, §4
as §5, with “organism. […]” for “organism.”

[3] = tested on: Corynebacterium jeikum (ATCC 33033); test: Carbohydrate Screening Test Method (Biolog phenotype microarray), Bacteria Code B
Description: as §1, with “The” for “After creating desired ratios of various commensal skin bacteria in a healthy skin microbiome, 188 different carbohydrate sources were screened as the next step in determining potential prospects for skin microbiota balancing agents. The”
as §2
To do so, the respective microarray data for the 79 carbohydrate sources was run through the GrowthRates 2.1 program to obtain growth parameters, such as growth rates and maximum yield data as described by the Belingham Research Institute, Hall, B. G., H. Acar and M. Barlow. […] Mol. Biol. Evol. […] The max yield parameters generated were utilized to calculate ratios of tested commensal bacteria. The ratios calculated were compared back to the desired ratios identified above (Corynebacterium to Staphylococcus of 1.3, Corynebacterium to Micrococcus of 1.4, and Staphylococcus to Micrococcus of 1.1).
(§6) As an example of this methodology used to calculate the commensal bacteria ratios and the difference between the calculated ratios and the desired ratios, an example code from Table 3 will be described. […] The max yields were then used to calculate ratios the bacteria would reach in a co-culture.
A passage of the culture was made using a sterile swab and streaked onto two M9*2 agar plates to prepare the incubated culture for the phenotype microarray pate according to Table 4.
All cultures were harvested and washed before inoculation into the carbon microarray plate (BiOLOG, Hayward Calif.), with Biolog Plates PM1 and PM2 each having a source definition of Carbon. The bacteria on the M9*2 agar was suspended via agitation with an inoculating loop in 1 mL of M9*1 media for collection in a 1.7 mL micro centrifuge tube, as noted in Table 4.

[4] = tested on: Micrococcus luteus (SK58); test: Carbohydrate Screening Test Method (Biolog phenotype microarray), Bacteria Code E; conditions: Commensal; carbon microarray plate, OD 600 nm, 36 hr, 33° C.; positive = more than 0.05 OD units above zero; blank cell = not utilized
Description: as §1, §2
To do so, the respective microarray data for the 79 carbohydrate sources was run through the GrowthRates 2.1 program to obtain growth parameters, such as growth rates and maximum yield data as described by the Belingham Research Institute, Hall, B. G., H. Acar and M. Barlow. 2014 Growth Rates Made Easy. Mol. Biol. Evol. 31:232-238 doi:10.1093/molbev/mst197. The max yield parameters generated were utilized to calculate ratios of tested commensal bacteria. The ratios calculated were compared back to the desired ratios identified above (Corynebacterium to Staphylococcus of 1.3, Corynebacterium to Micrococcus of 1.4, and Staphylococcus to Micrococcus of 1.1).
as §6

[5] = Commensal, carbon microarray plate, OD 600 nm, 36 hr, 33° C., positive = more than 0.05 OD units above zero, blank cell = not utilized

Row | Molecule | Carbohydrate Screening Results, Bacteria Code F [1] | Carbohydrate Screening Results, Bacteria Code C [2] | Carbohydrate Screening Results, Bacteria Code B [3, 5] | Carbohydrate Screening Results, Bacteria Code E [4] | Carbohydrate Screening Results, Bacteria Code B ([3]; ATCC33033, 36 h)
1 | CCCC(=O)O [Butyric Acid] | Y | – | – | – | –
2 | CCCCCCCCCC(=O)O [Capric Acid] | Y | – | – | – | –
3 | CCCCCC(=O)O [Caproic Acid] | Y | – | – | – | –
4 | CC(O)(CC(=O)O)C(=O)O (stereo not shown) [Citramalic Acid] | Y | – | – | – | –
5 | OC[C@@H](O)C(O)[C@H](O)CO [D-Arabitol] | Y | Y | – | – | –
6 | O=C1O[C@@H]([C@H](O)CO)[C@H](O)[C@H]1O [D-Galactonic Acid-γ-Lactone] | Y | Y | – | – | –
7 | N[C@H]1C(O)O[C@H](CO)[C@@H](O)[C@@H]1O (stereo partly drawn) [D-Glucosamine] | Y | Y | – | – | –
8 | O=P(O)(O)O[C@H]1O[C@H](CO)[C@@H](O)[C@H](O)[C@H]1O [D-Glucose-1-Phosphate] | – | Y | Y | Y | –
9 | O=C[C@H](O)[C@@H](O)[C@H](O)CO [D-Xylose] | Y | Y | – | – | –
10 | C=C(CC(=O)O)C(=O)O [Itaconic Acid] | Y | – | – | – | –
11 | O=C[C@H](O)[C@@H](O)[C@@H](O)CO [L-Arabinose] | Y | Y | – | – | –
12 | NC(=O)C[C@H](N)C(=O)O [L-Asparagine] | Y | – | Y | – | –
13 | C[C@H](O)[C@@H](O)[C@@H](O)[C@H](O)C=O [L-Fucose] | – | Y | Y | Y | –
14 | N[C@@H](CCC(=O)O)C(=O)O [L-Glutamic Acid] | Y | – | – | – | Y
15 | NC(=O)CC[C@H](N)C(=O)O [L-Glutamine] | – | Y | Y | – | –
16 | N[C@@H](Cc1c[nH]cn1)C(=O)O [L-Histidine] | Y | Y | – | – | –
17 | O=C1CC[C@@H](C(=O)O)N1 [L-Pyroglutamic Acid] | Y | – | – | – | –
18 | C[C@H](O)[C@H](O)[C@@H](O)[C@@H](O)C=O [L-Rhamnose] | – | Y | Y | Y | –
19 | O=C(O)[C@H](O)[C@@H](O)C(=O)O [L-Tartaric Acid] | Y | Y | – | – | –
20 | OC[C@@H](O)[C@@H](O[C@H]1O[C@H](CO)[C@@H](O)[C@H](O)[C@H]1O)[C@H](O)[C@@H](O)CO [Maltitol] | Y | Y | – | – | –
21 | O=C(O)[C@]1(O)C[C@@H](O)[C@@H](O)[C@H](O)C1 [Quinic Acid] | Y | Y | – | – | –
22 | NCCc1ccc(O)cc1 [Tyramine] | Y | Y | Y | – | –
23 | O[C@H]1[C@H](O)[C@@H](O)[C@H](O)[C@@H](O)[C@H]1O [m-Inositol] | – | Y | Y | Y | –
24 | COC1OC(CO)C(O)C(O)C1O [α-Methyl-D-Galactoside] | – | Y | Y | Y | –
25 | CO[C@@H]1O[C@H](CO)[C@@H](O)[C@H](O)[C@H]1O [β-Methyl-D-Galactoside] | Y | Y | – | – | –
26 | Gentiobiose | Y | Y | – | – | –
